≈ marks a conversion by molar mass, not a printed value. Where two headings read alike, the source gives them in different places.
Tests used:
[1] = system: Escherichia coli MC4100 harboring the IMP4213 (E. coli IMP); assay: microbe, parasite or virus in culture; format: cell-based; conditions: Escherichia coli, 22 h, read-out: MIC (μg/mL) E. coli IMP, E. coli MC4100 IMP4213, increased outer-membrane permeability; 35° C., 22 hours
Outline: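 Top conc 4 μg/mL (protocol 2) or 0.5 μg/mL (protocol 3), 2-fold series, 10 points. Final OD600 0.0005; 22 h, 35° C. IMP4213 = permeable outer membrane.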

[2] = system: Escherichia coli ATCC 25922; assay: Minimum inhibitory concentration, broth micro-dilution (CLSI), E. coli; format: cell-based; conditions: Escherichia coli, ATCC25922, 22 h, 35° C., 22 hours
[3] = system: Methicillin Resistant Staphylococcus aureus strain USA 300, NRS384; assay: Minimum inhibitory concentration, broth micro-dilution (CLSI), S. aureus; format: cell-based; conditions: Staphylococcus aureus, MRSA / NRS 384 / USA300, 22 h, 35° C., 22 hours
Outline: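 CLSI broth microdilution in cation-adjusted Mueller Hinton Broth with 0.002% Tween-80; inoculum final OD600 0.0005, 22 hours at 35° C. Ten 2-fold dilutions starting at 4 μg/mL (protocol 2) or 0.5 μg/mL (protocol 3).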

[4] = molecular target: T1, SpsB (Staphylococcus aureus signal peptidase) (Staphylococcus aureus, UniProt P0A070); assay: cell-based; format: biochemical; conditions: SpsB IC50, whole-cell S. aureus (USA300 background, overexpressing SpsB) as SpsB source; fluorogenic peptide substrate, kinetic read 30 min
T1 construct: This assay uses a suspension of Staphylococcus aureus cells as a source of SpsB instead of recombinant SpsB protein; endogenous in cells; host or cells: S. aureus, USA300 background, overexpressing SpsB (whole-cell suspension from frozen pellets)
Outline: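 Cleavage of an internally quenched (Dabcyl)βAla-KPAKAAE(Edans) peptide, added as 20 μM solution mixed 1:1 with cells, was followed for 30 min at 340/490 nm. SpsB came from a suspension of SpsB-overexpressing USA300 S. aureus in Tween-80-containing PBS buffer. Slopes plotted against 3-fold compound dilutions gave IC50.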

[5] = E. coli ATCC 25922, read-out: MIC (μg/mL) E. coli
[6] = MRSA USA 300 NRS384, read-out: MIC (μg/mL) S. aureus
[7] = read-out: MIC (μg/mL) E. coli, E. coli ATCC 25922
[8] = read-out: MIC (μg/mL) S. aureus, MRSA USA 300 NRS384

T1 sequence (P0A070 whole entry): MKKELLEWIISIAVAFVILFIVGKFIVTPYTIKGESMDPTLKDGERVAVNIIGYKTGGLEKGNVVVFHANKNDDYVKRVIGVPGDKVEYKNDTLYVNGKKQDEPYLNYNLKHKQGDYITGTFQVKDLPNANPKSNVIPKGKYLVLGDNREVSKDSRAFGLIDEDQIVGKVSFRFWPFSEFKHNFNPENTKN

Structure (SMILES)	MIC [1] [µg/mL]	MIC [2, 5] [µg/mL]	MIC [3, 6] [µg/mL]	IC50 [4] [nM]	MIC [2, 7] [µg/mL]	MIC [3, 8] [µg/mL]
CCCCc1ccc(C#CC(=O)N[C@@H](CCN)C(=O)N(C)[C@@H]2C(=O)N[C@@H](C)C(=O)N[C@H](C(=O)NCC#N)Cc3ccc(OCCN)c(c3)-c3cc2ccc3OCCN)cc1 [Compound 124]	0.031 (≈ 0.0377 µM)	2 (≈ 2.43 µM)	0.13 (≈ 0.158 µM)	1.6	–	–
CCCCCCCCCC(=O)N[C@@H](C(=O)N[C@@H](CCN)C(=O)N(C)[C@@H]1C(=O)N[C@@H](C)C(=O)N[C@H](C(=O)NCC#N)Cc2ccc(OCCN)c(c2)-c2cc1ccc2OCCN)C(C)O (single isomer, unassigned) [Compound 357-P2]	0.094 (≈ 0.105 µM)	–	–	1.1	12 (≈ 13.4 µM)	0.094 (≈ 0.105 µM)
Cc1nc(-c2ccc(C(C)(C)C)cc2)ncc1C(=O)N[C@@H](CCN)C(=O)N(C)[C@@H]1C(=O)N[C@@H](C)C(=O)N[C@H](C(=O)NCC#N)Cc2ccc(OCCN)c(c2)-c2cc1ccc2OCCN [Compound 163]	0.002 (≈ 0.00225 µM)	< 0.063	0.031 (≈ 0.0348 µM)	0.71	–	–
CCCCCCCCCC(=O)N[C@@H](CCSC)C(=O)N(C)[C@@H]1C(=O)N[C@@H](C)C(=O)N[C@H](C(=O)NCC#N)Cc2ccc(OCCN)c(c2)-c2cc1ccc2OCCN [Compound 254]	0.5 (≈ 0.607 µM)	48 (≈ 58.3 µM)	0.5 (≈ 0.607 µM)	1.6	–	–
C[C@@H]1NC(=O)[C@@H](N(C)C(=O)[C@H](CCCCN)NC(=O)Cc2ccc(-c3ccc(Cl)cc3)cc2)c2ccc(OCCN)c(c2)-c2cc(ccc2OCCN)C[C@@H](C(=O)NCC#N)NC1=O [Compound 117]	0.5 (≈ 0.559 µM)	–	–	2	> 64	0.13 (≈ 0.145 µM)
CCCCc1ccc(NC(=O)CCC(=O)N[C@@H](CCN)C(=O)N(C)[C@@H]2C(=O)N[C@@H](C)C(=O)N[C@H](C(=O)NCC#N)Cc3ccc(OCCN)c(c3)-c3cc2ccc3OCCN)c(C)c1 [Compound 377]	0.13 (≈ 0.147 µM)	8 (≈ 9.06 µM)	0.13 (≈ 0.147 µM)	1	–	–
CCCCCCCCS(=O)(=O)N[C@@H](CO)C(=O)N(C)[C@@H]1C(=O)N[C@@H](C)C(=O)N[C@H](C(=O)NCC#N)Cc2ccc(OCCN)c(c2)-c2cc1ccc2OCCN [Compound 345]	2 (≈ 2.5 µM)	–	–	2.2	> 64	0.5 (≈ 0.624 µM)
CCCCCCCOc1ccc(C(=O)N[C@@H](CCN)C(=O)N(C)[C@@H]2C(=O)N[C@@H](C)C(=O)N[C@H](C(=O)NCC#N)Cc3ccc(OCCN)c(c3)-c3cc2ccc3OCCN)c(C)c1 [Compound 268]	< 0.0039	0.22 (≈ 0.253 µM)	0.035 (≈ 0.0402 µM)	0.86	–	–
CCCCCCCCCC(=O)N[C@H](CCO)C(=O)N[C@@H](CCN)C(=O)N(C)[C@@H]1C(=O)N[C@@H](C)C(=O)N[C@H](C(=O)NCC#N)Cc2ccc(OCCN)c(c2)-c2cc1ccc2OCCN [Compound 379]	0.25 (≈ 0.28 µM)	–	–	0.89	32 (≈ 35.8 µM)	0.25 (≈ 0.28 µM)
CCCCCCCCc1ccc(C(=O)N[C@@H](C)C(=O)N(C)[C@@H]2C(=O)N[C@@H](C)C(=O)N[C@H](C(=O)NCC#N)Cc3ccc(OCCN)c(c3)-c3cc2ccc3OCCN)c(C)c1 [Compound 243]	0.031 (≈ 0.0369 µM)	1.5 (≈ 1.79 µM)	0.094 (≈ 0.112 µM)	1.3	–	–
CCCCCCCc1ccc(C(=O)N[C@@H](CCN)C(=O)N(C)[C@@H]2C(=O)N[C@@H](C)C(=O)N[C@H](C(=O)NCC#N)Cc3ccc(OCCN)c(c3)-c3cc2ccc3OCCN)c(C)c1 [Compound 198]	0.018 (≈ 0.0211 µM)	0.24 (≈ 0.281 µM)	0.063 (≈ 0.0738 µM)	0.72	–	–
CCCCCCc1ccc(C(=O)N[C@@H](CC(N)=O)C(=O)N(C)[C@@H]2C(=O)N[C@@H](C)C(=O)N[C@H](C(=O)NCC#N)Cc3ccc(OCCN)c(c3)-c3cc2ccc3OCCN)c(C)c1 [Compound 237]	0.094 (≈ 0.11 µM)	16 (≈ 18.7 µM)	0.13 (≈ 0.152 µM)	1.1	–	–
CCCCCCCCCCNCCS(=O)(=O)N[C@@H](CCN)C(=O)N(C)[C@@H]1C(=O)N[C@@H](C)C(=O)N[C@H](C(=O)NCC#N)Cc2ccc(OCCN)c(c2)-c2cc1ccc2OCCN [Compound 350]	0.063 (≈ 0.0712 µM)	4 (≈ 4.52 µM)	0.016 (≈ 0.0181 µM)	1	–	–
C[C@@H]1NC(=O)[C@@H](N(C)C(=O)[C@H](CCN)NC(=O)/C=C/c2ccc(-c3ccc(Cl)cc3)cc2)c2ccc(OCCN)c(c2)-c2cc(ccc2OCCN)C[C@@H](C(=O)NCC#N)NC1=O [Compound 427]	0.047 (≈ 0.0535 µM)	–	–	1.2	1 (≈ 1.14 µM)	0.063 (≈ 0.0717 µM)

— patent US20180327367A1, “MACROCYCLIC BROAD SPECTRUM ANTIBIOTICS” (priority 2015, published 2018)
